Experiment: Water solubility test (aqueous solution clarity and stability)
Assay type: physicochemical
Conditions: for time the solution stayed clear (before turning hazy): 1.0 gram in 100 ml distilled water with 1% glacial acetic acid, ambient temperatures; for time until the slightly hazy solution turned clear: 1.0 gram sample in 100 ml distilled water acidified with 1% glacial acetic acid, stirring
Description: With stirring, 1.0 gram sample from Example 1 was added gradually to 100 ml of distilled water acidified with 1% glacial acetic acid. The solution was slightly hazy at the beginning but turned clear after 45 min. while the commercial product Z-6032 (Dow Coming) under similar conditions turned clear in 20 min.

Molecule | time the solution stayed clear (before turning hazy) | time until the slightly hazy solution turned clear
C=Cc1ccc(CNCCNCCC[Si](OC)(OC)OC)cc1.Cl [Example Z-6032, CH2═CHC6H4CH2NH(CH2)2NH(CH2)3Si(OCH3)3•HCl] | less than 1 week | 20 min
CH3CH2C6H4CH2NH(CH2)2NH(CH2)3Si(OCH3)3•HCl [Example 1] | more than two weeks | 45 min
